{"source": "patent US20250325562A1", "about": "“Intravenous Ganaxolone Formulations and Methods of Use in Treating Status Epilepticus and Other Seizure Disorders” (MARINUS PHARMACEUTICALS, INC., priority 2015, published 2025)", "key": {"[1]": {"details": "in vivo; cited from earlier work"}, "[2]": {"assay": "Phase solubility of ganaxolone in aqueous CAPTISOL solutions, HPLC", "type": "physicochemical", "details": "for Ganaxolone conc. by HPLC: 42 hours equilibrium", "experimental": "Ganaxolone solubility in aqueous CAPTISOL solution was first determined by constructing a phase solubility diagram. Excess ganaxolone was shaken in aqueous CAPTISOL solutions of known concentrations for 42 hours to reach equilibrium. The ganaxolone solution was filtered into HPLC vials through 0.45 μm syringe filters. The filtrates were assayed for ganaxolone concentration by HPLC. Moles of ganaxolone in solution against moles of CAPTISOL added were plotted."}, "[3]": {"assay": "Ganaxolone concentration reached in 30% Captisol solutions (with additives or dry mixing), HPLC", "type": "physicochemical", "experimental": "500 μl of 10% aqueous Polysorbate 80 solution in a 20 ml scintillation vial were combined with powdered ganaxolone (50 mg). The mixture was stirred to wet the ganaxolone. Solid Captisol (3.2 g), sufficient to form a 30% Captisol solution, was then added to the vial and the vial contents were mixed. Deionized water (8.0 g) was then added and the mixture was vigorously stirred at room temperature overnight to obtain a hazy solution. An aliquot was filtered through 0.2 μm syringe filter and ganaxolone concentration was assayed by HPLC to be 4.28 mg/ml.\nGanaxolone was vigorously stirred in 30% Captisol in the presence of 10% v/v ethanol overnight to obtain a 3.16 mg/ml ganaxolone solution. • (b) Ganaxolone-30% Captisol solution containing glycerin\nGanaxolone was vigorously stirred in 30% Captisol in the presence of 10% v/v glycerin overnight to obtain a 3.45 mg/ml ganaxolone solution. • (c) Ganaxolone-30% Captisol solution containing propylene glycol\nGanaxolone was vigorously stirred in 30% Captisol in the presence of 10% v/v propylene glycol overnight to obtain a 2.53 mg/ml ganaxolone solution.\nPowdered ganaxolone (125 mg) was charged into 100 ml beaker. Captisol powder (7.9 g) was then added to the beaker. The mixture was mixed by stirring with a magnetic stir bar for 5 min. Deionized water (20.1 g) was weighed into a plastic cup. About half of the water was added into the beaker and the contents were vigorously stirred for 30 minutes to obtain a homogeneous mixture. The remaining water was added and the beaker was covered with paraffin film."}, "[4]": {"details": "cited from earlier work"}}, "note": "Where two headings read alike, the source gives them in different places.", "data": [{"smiles": "CC(=O)[C@H]1CC[C@H]2[C@@H]3CC[C@H]4C[C@H](O)CC[C@]4(C)[C@H]3CC[C@]12C", "note": "[Allopregnanolone]", "values": [{"measurement": "half-life", "setting": "[1]", "value": "very short"}]}, {"smiles": "CC(=O)[C@H]1CC[C@H]2[C@@H]3CC[C@H]4C[C@](C)(O)CC[C@]4(C)[C@H]3CC[C@]12C", "note": "[Ganaxolone, 3α-hydroxy, 3β-methyl-5α-pregnan-20-one]", "values": [{"measurement": "Ganaxolone conc.", "setting": "[2]; CAPTISOL 0 mg/mL", "value": 0, "unit": "mM"}, {"measurement": "Ganaxolone conc. by HPLC", "setting": "[2]; CAPTISOL 0 mg/mL", "value": "Not detectable"}, {"measurement": "Ganaxolone conc.", "setting": "[2]; CAPTISOL 25 mg/mL (0.0116 M)", "value": 1.3, "unit": "mM"}, {"measurement": "Ganaxolone conc. by HPLC", "setting": "[2]; CAPTISOL 25 mg/mL (0.0116 M)", "value": 0.43, "unit": "mg/mL"}, {"measurement": "Ganaxolone conc.", "setting": "[2]; CAPTISOL 50 mg/mL (0.0231 M)", "value": 2.7, "unit": "mM"}, {"measurement": "Ganaxolone conc. by HPLC", "setting": "[2]; CAPTISOL 50 mg/mL (0.0231 M)", "value": 0.88, "unit": "mg/mL"}, {"measurement": "Ganaxolone conc.", "setting": "[2]; CAPTISOL 100 mg/mL (0.0462 M)", "value": 5.6, "unit": "mM"}, {"measurement": "Ganaxolone conc. by HPLC", "setting": "[2]; CAPTISOL 100 mg/mL (0.0462 M)", "value": 1.86, "unit": "mg/mL"}, {"measurement": "Ganaxolone conc.", "setting": "[2]; CAPTISOL 200 mg/mL (0.0925 M)", "value": 10.9, "unit": "mM"}, {"measurement": "Ganaxolone conc. by HPLC", "setting": "[2]; CAPTISOL 200 mg/mL (0.0925 M)", "value": 3.63, "unit": "mg/mL"}, {"measurement": "Ganaxolone conc.", "setting": "[2]; CAPTISOL 400 mg/mL (0.185 M)", "value": 23.1, "unit": "mM"}, {"measurement": "Ganaxolone conc. by HPLC", "setting": "[2]; CAPTISOL 400 mg/mL (0.185 M)", "value": 7.68, "unit": "mg/mL"}, {"measurement": "ganaxolone concentration by HPLC", "setting": "[3]; 30% Captisol with Polysorbate 80, stirred overnight at room temperature, 0.2 μm filtered", "value": 4.28, "unit": "mg/mL"}, {"measurement": "ganaxolone concentration of solution", "setting": "[3]; 30% Captisol, 10% v/v ethanol, stirred overnight", "value": 3.16, "unit": "mg/mL"}, {"measurement": "ganaxolone concentration of solution", "setting": "[3]; 30% Captisol, 10% v/v glycerin, stirred overnight", "value": 3.45, "unit": "mg/mL"}, {"measurement": "ganaxolone concentration of solution", "setting": "[3]; 30% Captisol, 10% v/v propylene glycol, stirred overnight", "value": 2.53, "unit": "mg/mL"}, {"measurement": "ganaxolone concentration after prolonged stirring", "setting": "[3]; 30% Captisol, dry mixing, after 90 hours of stirring", "value": "unchanged"}, {"measurement": "ganaxolone concentration of solution", "setting": "[3]; 30% Captisol, prior dry mixing of ganaxolone and Captisol, stirred overnight at room temperature", "value": 4.61, "unit": "mg/mL"}, {"measurement": "half-life", "setting": "[4]; human plasma following oral administration", "value": "approximately 20 hours"}, {"measurement": "Tmax", "setting": "[4]; therapeutic blood levels are reached quickly", "value": "short"}]}]}
